According to patent US8772499B2, “TRPV3 modulators” (AbbVie Inc., priority 2011, dated 2014):
Like-named read-outs stand apart in the source and are kept apart here.

Legend:
[1] = In vitro rat microsomal stability assay; assay type: in vitro ADME, rat (Sprague-Dawley)
How it was run: (§1)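 Compound is mixed with liver microsomes (human, or rat of the Sprague-Dawley strain). The mixture is then held at 37° C. in the presence of NADPH. Time-zero plates also receive NADPH.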

human TRPV3 = target: T1, human TRPV3 (Homo sapiens, UniProt Q8NET8); assay: In vitro antagonism of recombinant human TRPV3 activation (FLIPR Tetra calcium assay); assay type: cell-based; conditions: HEK293 cells stably expressing human TRPV3, agonist 2-APB at 80 μM
T1 construct: expressed in transfected cells
T1 sequence (Q8NET8 1-790): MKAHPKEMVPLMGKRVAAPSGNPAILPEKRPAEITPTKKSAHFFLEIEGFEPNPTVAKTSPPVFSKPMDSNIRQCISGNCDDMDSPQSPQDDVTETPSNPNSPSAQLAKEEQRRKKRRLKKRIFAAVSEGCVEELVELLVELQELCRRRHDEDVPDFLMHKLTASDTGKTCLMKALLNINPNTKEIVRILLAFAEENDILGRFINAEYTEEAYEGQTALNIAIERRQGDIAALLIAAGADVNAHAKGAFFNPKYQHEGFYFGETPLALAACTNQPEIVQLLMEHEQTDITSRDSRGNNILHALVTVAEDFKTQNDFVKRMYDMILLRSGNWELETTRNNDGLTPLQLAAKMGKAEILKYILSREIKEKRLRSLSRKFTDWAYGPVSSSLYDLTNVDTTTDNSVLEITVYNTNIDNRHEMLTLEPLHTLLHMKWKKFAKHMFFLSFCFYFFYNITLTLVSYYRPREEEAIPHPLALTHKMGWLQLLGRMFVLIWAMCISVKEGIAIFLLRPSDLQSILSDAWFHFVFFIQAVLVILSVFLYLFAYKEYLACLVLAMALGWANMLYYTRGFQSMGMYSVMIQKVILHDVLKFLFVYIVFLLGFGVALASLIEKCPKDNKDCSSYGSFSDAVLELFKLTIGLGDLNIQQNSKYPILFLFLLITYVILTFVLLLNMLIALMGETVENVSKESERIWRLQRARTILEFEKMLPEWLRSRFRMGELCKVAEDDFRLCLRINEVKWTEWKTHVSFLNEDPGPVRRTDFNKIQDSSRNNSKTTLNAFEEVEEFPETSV
How it was run: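 HEK293 cells stably expressing human TRPV3, loaded with Calcium-4 dye for 90–120 min, received compound in DPBS, then 80 μM 2-APB (EC80) 3 min later. Max-minus-min fluorescence expressed as % of 2-APB response without antagonist; IC50 values mostly averages of n≥2 runs.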

[2] = In vitro human microsomal stability assay; assay type: in vitro ADME
How it was run: as §1

[3] = rat liver microsomes (Sprague-Dawley), 0.5 μM substrate, 0.25 mg/mL microsomal protein, pH 7.4, 37° C., NADPH, 30 minutes
[4] = actual measured value shown parenthetically, in most cases average of at least two runs, read-out: IC50
[5] = human liver microsomes, 0.5 μM substrate, 0.25 mg/mL microsomal protein, pH 7.4, 37° C., NADPH, 30 minutes
[6] = Sprague-Dawley, rat, microsomes, 0.5 h, 0.5 μM, pH 7.4
[7] = human, microsomes, 0.5 h, 0.5 μM, pH 7.4
[8] = reported range, read-out: IC50 (range class)

SMILES	RAT MICROSOMAL STABILITY (% REMAINING AFTER 30 MINUTES) [1, 3]	IC50 (human TRPV3; [4])	HUMAN MICROSOMAL STABILITY (% REMAINING AFTER 30 MINUTES) [2, 5]	RAT MICROSOMAL STABILITY (% REMAINING AFTER 30 MINUTES) [1, 6]	HUMAN MICROSOMAL STABILITY (% REMAINING AFTER 30 MINUTES) [2, 7]	IC50 (human TRPV3; [8])
Cl.O[C@H](c1ccccn1)C1(c2ccc(Cl)c(Cl)c2)CC(F)(F)C1 [Example 111, (S)-[1-(3,4-dichlorophenyl)-3,3-difluorocyclobutyl](pyridin-2-yl)methanol hydrochloride]	23%	0.19 µM	52%			
OC(c1ccccn1)C1(c2ccc(OC(F)(F)F)cc2)CC(F)(F)C1 (stereo not drawn) [Example 112, {3,3-difluoro-1-[4-(trifluoromethoxy)phenyl]cyclobutyl}(pyridin-2-yl)-methanol]		0.3 µM		75%	75%	
OC(c1ccccn1)C1(c2cccc(C(F)(F)F)c2)CC(F)(F)C1 (stereo not drawn) [Example 113, {3,3-difluoro-1-[3-(trifluoromethyl)phenyl]cyclobutyl}(pyridin-2-yl)-methanol]		0.26 µM		18%	24%	
OC(c1ccccn1)C1(c2cccc(OC(F)(F)F)c2)CC(F)(F)C1 (stereo not drawn) [Example 114, {3,3-difluoro-1-[3-(trifluoromethoxy)phenyl]cyclobutyl}(pyridin-2-yl)-methanol]		0.23 µM		11%	6.9%	
OC(c1ccccn1)C1(c2ccc(C(F)(F)F)cn2)CCC1 (stereo not drawn) [Example 115, pyridin-2-yl{1-[5-(trifluoromethyl)pyridin-2-yl]cyclobutyl}methanol]		19.4 µM		81%	>85%	
OC(c1ccccn1)C1(c2cc(C(F)(F)F)ccn2)CCC1 (stereo not drawn) [Example 116, pyridin-2-yl{1-[4-(trifluoromethyl)pyridin-2-yl]cyclobutyl}methanol]		0.75 µM		25%	37%	
O=C1CC(c2ccc(Cl)c(Cl)c2)([C@H](O)c2ccccn2)C1 [Example 117, 3-(3,4-dichlorophenyl)-3-[(S)-hydroxy(pyridin-2-yl)methyl]cyclobutanone]		2.42 µM		50%	18%	
Nc1cccnc1C(O)C1(c2cccc(C(F)(F)F)c2)CCC1 (stereo not drawn) [Example 120, (3-aminopyridin-2-yl) {1-[3-(trifluoromethyl)phenyl]cyclobutyl}methanol]		> 20 µM		<0.01%	1.6%	> 20 µM
Nc1cccnc1C(O)C1(c2ccc(OC(F)(F)F)cc2)CCC1 (stereo not drawn) [Example 121, (3-aminopyridin-2-yl) {1-[4-(trifluoromethoxy)phenyl]cyclobutyl}methanol]		> 20 µM		0.18%	41%	> 20 µM
O[C@@H](c1ccccn1)C1(c2cc(C(F)(F)F)ccn2)CCC1 [Example 122, (R)-pyridin-2-yl{1-[4-(trifluoromethyl)pyridin-2-yl]cyclobutyl}methanol]		> 20 µM		26%	28%	> 20 µM
O[C@H](c1ccccn1)C1(c2cc(C(F)(F)F)ccn2)CCC1 [Example 123, (S)-pyridin-2-yl{1-[4-(trifluoromethyl)pyridin-2-yl]cyclobutyl}methanol]		0.39 µM		11%	21%	
Nc1cccnc1C(O)C1(c2cccc(OC(F)(F)F)c2)CCC1 (stereo not drawn) [Example 124, (3-aminopyridin-2-yl) {1-[3-(trifluoromethoxy)phenyl]cyclobutyl}methanol]		> 20 µM		<0.01%	1.6%	> 20 µM
O[C@@H](c1ccccn1)C1(c2cc(C(F)(F)F)ccn2)CC(F)(F)C1 [Example 125, (R)-{3,3-difluoro-1-[4-(trifluoromethyl)pyridin-2-yl]cyclobutyl}(pyridin-2-yl)-methanol]		18.6 µM		8.8%	53%	
O[C@H](c1ccccn1)C1(c2cc(C(F)(F)F)ccn2)CC(F)(F)C1 [Example 126, (S)-{3,3-difluoro-1-[4-(trifluoromethyl)pyridin-2-yl]cyclobutyl}(pyridin-2-yl)methanol]		0.82 µM		7.7%	21%	
Nc1cccnc1C(O)C1(c2ccc(C(F)(F)F)cc2)CCC1 (stereo not drawn) [Example 127, (3-aminopyridin-2-yl) {1-[4-(trifluoromethyl)phenyl]cyclobutyl}methanol]		11.6 µM		1.1%	51%	
COC1(OC)CC(c2ccc(OC(F)(F)F)cc2)(C(O)c2ccccn2)C1 (stereo not drawn) [Example 129, {3,3-dimethoxy-1-[4-(trifluoromethoxy)phenyl]cyclobutyl}(pyridin-2-yl)-methanol]		0.33 µM		0.01%	46%	
Nc1cccnc1C(O)C1(c2ccc(Cl)c(Cl)c2)CCC1 (stereo not drawn) [Example 130, (3-aminopyridin-2-yl)[1-(3,4-dichlorophenyl)cyclobutyl]methanol]		3.11 µM		<0.01%	4.0%	
OC(c1ccccn1)C1(c2ccc(C(F)(F)F)cc2)CC(F)(F)C1 (stereo not drawn) [Example 133, {3,3-difluoro-1-[4-(trifluoromethyl)phenyl]cyclobutyl}(pyridin-2-yl)-methanol]		0.12 µM		61%	73%	
O[C@H](c1ccccn1)[C@@]1(c2ccc(Cl)c(Cl)c2)CCO1 [Example 135, (R)-[(2S)-2-(3,4-dichlorophenyl)oxetan-2-yl](pyridin-2-yl)methanol]		1.01 µM		3.4%	33%	
OC(c1ccccn1)C1(c2ccc(C(F)(F)F)cn2)CC(F)(F)C1 (stereo not drawn) [Example 137, {3,3-difluoro-1-[5-(trifluoromethyl)pyridin-2-yl]cyclobutyl}(pyridin-2-yl)-methanol]		4.87 µM		>85%	77%	
OC(c1ccccn1)C1(c2ccc(Cl)c(C(F)(F)F)c2)CC(F)(F)C1 (stereo not drawn) [Example 138, {1-[4-chloro-3-(trifluoromethyl)phenyl]-3,3-difluorocyclobutyl}(pyridin-2-yl)methanol]		0.83 µM		18%	41%	
OC(c1ccccn1)C1(c2ccc(F)c(C(F)(F)F)c2)CC(F)(F)C1 (stereo not drawn) [Example 139, {3,3-difluoro-1-[4-fluoro-3-(trifluoromethyl)phenyl]cyclobutyl}(pyridin-2-yl)methanol]		0.75 µM		26%	41%	
OC(c1ccccn1)C1(c2ccc(Cl)c(Cl)c2)CCNCC1 (stereo not drawn) [Example 140, [4-(3,4-dichlorophenyl)piperidin-4-yl](pyridin-2-yl)methanol]		> 20 µM		37%	>85%	> 20 µM
CN1CCC(c2ccc(Cl)c(Cl)c2)(C(O)c2ccccn2)CC1 (stereo not drawn) [Example 141, [4-(3,4-dichlorophenyl)-1-methylpiperidin-4-yl](pyridin-2-yl)methanol]	59%	> 20 µM	>85%			> 20 µM
